Consider 11 molecules from patent EP1092007B1, “A NEW IMPROVED ENZYME CONTAINING GRANULE” (Novozymes A/S, priority 1998, dated 2000).

A short description of one series: Measurement of constant humidity values for coating compounds. The format is physicochemical. Conditions: 20°C; % RH of air over saturated aqueous solution. How it is done: The term "constant humidity" (in the context of the invention sometimes abbreviated as CH) of a compound or substance is to be understood as the % RH of atmospheric air in equilibrium with a saturated aqueous solution of said compound in contact with the solid phase of said compound, all confined within a closed space at a given temperature. […] Accordingly CH20 °C =50% for a compound means that air with a 50% humidity will be in equilibrium with a saturated aqueous solution of the compound at 20°C. Accordingly the term constant humidity is a measure of the hygroscopic properties of a compound.
The constant humidity of water soluble compound coating materials were measured by preparing a saturated aqueous solution with excess of solid phase of the compound in an open beaker.
Take `N.O=P(O)(O)O` [(NH4)H2PO4]: the “CH20°C (constant humidity)” value stood at 93.1%.
Take `O=P([O-])(O)O.[K+]` [KH2PO4]: the “CH20°C (constant humidity)” value was determined as 92%.
With `O=S(=O)([O-])O.[K+]` [KHSO4], the “CH20°C (constant humidity)” value came out at 86%.
Still for that read-out and setting: as for `O=P([O-])([O-])O.[Na+].[Na+]` [Na2HPO4], the figure is 95%; as for `O=S(=O)([O-])[O-].[Na+].[Na+]` [Na2SO4, sodium sulfate], 93%; as for `O=S(=O)([O-])[O-].[Zn+2]` [ZnSO4], 90%.

The series is the same for the next values; noted with them: 25°C.
Consider `N.N.O=S(=O)(O)O` [Ammonium sulfate], for which the “Constant humidities at 25°C” value is reported as 79.
The same measure, in the same setting: as for `O=S(=O)([O-])[O-].[Na+].[Na+]` [Na2SO4, sodium sulfate], the figure is 93; as for `O=C([O-])CC(O)(CC(=O)[O-])C(=O)[O-].[Na+].[Na+].[Na+]` [sodium citrate], 86; as for `O=C[O-].[Na+]` [sodium formiate], 56.

The same series, now with this note: 25°C; % RH of air over saturated aqueous solution.
As for `O=S(=O)([O-])[O-].[K+].[K+]` [Example K2SO4, K2SO4], the “CH25°C (constant humidity)” value was 99%.
Turning to `O=P([O-])([O-])[O-].[Na+].[Na+].[Na+]` [Na3PO4], the “CH25°C (constant humidity)” value amounted to 92%.
Still for that read-out and setting: for `O=C([O-])CC(O)(CC(=O)[O-])C(=O)[O-].[Na+].[Na+].[Na+]` [sodium citrate] the value was 86%.
